The assay addresses Hematopoietic prostaglandin D synthase (Homo sapiens, UniProt O60760). The experiment in a line: In Vitro GST Activity Assay. The settings on record: pH 7.2; 22 °C. The method, then: The PGDS glutathione-S-transferase (GST) activity was measured by using MonoChloroBimane (MCB) as a chromogenic substrate. The assay was run at 384-well format in reaction buffer containing enzyme and test compound. Then MCB and GSH were added for further incubation. After reaction was stopped, the fluorescence was measured (excitation: 390 nm; emission: 478 nm).

Each structure is given as a SMILES string.

This passage reports IC50 results from BindingDB's records for doi:10.1021/jm701509k (Astrazeneca, 2008).

Hematopoietic prostaglandin D synthase, sequence (O60760 whole entry): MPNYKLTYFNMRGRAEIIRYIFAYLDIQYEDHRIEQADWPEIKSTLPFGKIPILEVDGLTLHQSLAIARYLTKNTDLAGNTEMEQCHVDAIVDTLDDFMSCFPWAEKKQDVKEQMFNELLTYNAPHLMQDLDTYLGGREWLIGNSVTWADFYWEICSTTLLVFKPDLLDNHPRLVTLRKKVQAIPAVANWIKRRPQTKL

`COc1ccc(-c2cc3c(nn2)-c2ccccc2C3=O)cc1` yielded an IC50 of 3.8 µM.
In turn, `CCOC(=O)c1cc(OC)c(-c2ccccc2)nn1` [ethyl 5-methoxy-6-phenylpyridazine-3-carboxylate] registered an IC50 of 45 µM.
